From US12577217B2, “15-PGDH inhibitor” (KYORIN Pharmaceutical Co., Ltd., priority 2019, dated 2026)
pIC50: −log10 of the molar value. Like-named read-outs stand apart in the source and are kept apart here.

Molecular target: T1, recombinant human 15-PGDH (Homo sapiens, UniProt P15428)
T1 construct: purchased R&D Systems
T1 sequence (P15428 1-266): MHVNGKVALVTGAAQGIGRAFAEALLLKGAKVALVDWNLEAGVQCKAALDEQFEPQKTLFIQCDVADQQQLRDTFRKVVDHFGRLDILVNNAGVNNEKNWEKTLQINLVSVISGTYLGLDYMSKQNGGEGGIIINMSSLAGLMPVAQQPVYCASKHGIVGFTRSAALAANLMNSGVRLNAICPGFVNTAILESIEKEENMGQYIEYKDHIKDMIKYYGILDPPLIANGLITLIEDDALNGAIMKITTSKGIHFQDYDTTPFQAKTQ
Assay: 15-PGDH enzyme inhibition test
Assay type: biochemical
Details: 4 nM recombinant human 15-PGDH, 30 μM PGE2, 1 mM NAD+, 60 minutes after starting the reaction
In short: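 Fluorescence (excitation 340 nm, emission 440 nm) measured 60 min after adding 1 mM NAD+ and 30 μM PGE2 to 4 nM recombinant human 15-PGDH, which had stood 12 min at room temperature with compound in pH 8.0 Tris-HCl buffer. Concentration-response curves yield IC50, binned into potency categories.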

SMILES | pIC50 (read-out: IC50 Value) | pIC50 (IC50 Value)
COCn1nc2cc(N3CCCc4cc(C(=O)N5CCCCC5)cnc43)ccn2c1=O [Example 1-53] | > 8.00 | –
O=C(O)CCc1ccc(N2CCOc3cc(C(=O)N4CCCCC4)ccc32)cc1 [Example 2-33] | > 8.00 | –
Cn1nc2cc(N3CCCc4cc(SC5CCCCC5)cnc43)ccn2c1=O [Example 1-135] | 7.00 to 8.00 | –
CN1Cc2cc(N3CCOc4cc(C(=O)N5CCC(F)(F)CC5)cnc43)ccc2C1=O [Example 1-127] | > 8.00 | –
O=C1NCc2cc(N3CCOc4cc(C(=O)N5CCCCC5)cnc43)ccc21 [Example 14-2] | > 8.00 | –
Cn1nc2cc(N3CCOc4cc(C(=O)N5CCC(C)(C)C5)cnc43)ccn2c1=O [Example 8-100] | > 8.00 | –
Cn1nc2cc(N3CCOc4cc(C(=O)N5CCC(Cl)CC5)cnc43)ccn2c1=O [Example 8-113] | > 8.00 | –
Cn1nc2cc(N3CCOc4cc(C(=O)N5CCC(=O)CC5)cnc43)ccn2c1=O [Example 8-112] | – | 7.00 to 8.00
CN1Cc2cc(N3CCOc4cc(C(=O)N5CCC(F)(F)CC5)cnc43)ncc2C1=O [Example 1-46] | 7.00 to 8.00 | –
CCN1Cc2cc(N3CCOc4cc(C(=O)N5CCCCC5)cnc43)ccc2C1=O [Example 8-18] | > 8.00 | –
C[C@H]1CCCCN1C(=O)c1cnc2c(c1)CCCN2c1ccn2c(=O)n(C)nc2c1 [Example 8-133] | > 8.00 | –
CCN1Cc2cc(N3CCCc4cc(C(=O)N5CCC[C@@H](C(F)F)C5)cnc43)ccc2C1=O [Example 8-93] | > 8.00 | –
CS(=O)(=O)NCc1ccc(N2CCOc3cc(C(=O)N4CCCCC4)ccc32)cc1 [Example 1-160] | > 8.00 | –
CCCN1Cc2cc(N3CCCc4cc(C(=O)N5CCCCC5)cnc43)ccc2C1=O [Example 1-196] | > 8.00 | –
Cn1nc2cc(N3CCOc4cc(C(=O)N5C[C@H]6CCC[C@H]6C5)cnc43)ccn2c1=O [Example 8-98] | > 8.00 | –
CN(CC1CCCC1)C(=O)c1cnc2c(c1)OCCN2c1ccn2c(=O)n(C)nc2c1 [Example 17-3] | > 8.00 | –

SMILES | pIC50 (read-out: IC50 Value) | pIC50 (IC50 Value)
Cn1nc2cc(N3CCOc4cc(C(=O)N5CCC6CC6C5)cnc43)ccn2c1=O (centres unmarked) [Example 8-46] | > 8.00 | –
Cn1nc2cc(N3CCOc4cc(C(=O)N5CCC(F)(F)C5)cnc43)ccn2c1=O [Example 8-25] | > 8.00 | –
CCn1nc2cc(N3CCCc4cc(C(=O)N5CCC[C@@H](C(F)(F)F)C5)cnc43)ccn2c1=O [Example 8-170] | 7.00 to 8.00 | –
COCCn1nc2cc(N3CCCc4cc(C(=O)N5CCC(F)(F)CC5)cnc43)ccn2c1=O [Example 1-78] | > 8.00 | –
CN(C)C(=O)Cn1nc2cc(N3CCOc4cc(C(=O)N5CCCCC5)cnc43)ccn2c1=O [Example 6-8] | > 8.00 | –
O=C(O)c1cccc(N2CCc3cc(C(=O)N4CCCCC4)ccc32)c1 [Example 2-29] | > 8.00 | –
CCOCCn1nc2cc(N3CCCc4cc(C(=O)N5CCC(F)(F)CC5)cnc43)ccn2c1=O [Example 1-79] | > 8.00 | –
O=C(c1cnc2c(c1)OCCN2c1ccc2c(c1)C(C1CC1)=NS2(=O)=O)N1CCCCC1 [Example 1-167] | 7.00 to 8.00 | –
COC(=O)c1ccc2cc(N3CCOc4cc(C(=O)N5CCCCC5)cnc43)nn2c1 [Example 11-6] | > 8.00 | –
O=C(O)c1ccc(N2CCOc3cc(C(=O)N4CCC[C@H](F)C4)cnc32)cc1 [Example 4-8] | > 8.00 | –
O=C1NCc2cc(N3CCOc4cc(C(=O)N5CCC(F)(F)CC5)ccc43)ccc21 [Example 14-3] | > 8.00 | –
CCn1nc2cc(N3CCOc4cc(C(=O)N5CCCCC56COC6)cnc43)ccn2c1=O [Example 8-218] | < 7.00 | –
Cn1cnc2cc(N3CCOc4cc(C(=O)N5CCCCC5)cnc43)ccc2c1=O [Example 1-163] | > 8.00 | –
Cn1nc2cc(N3CCOc4cc(C(=O)N5CCC[C@H](C(F)(F)F)C5)cnc43)ccn2c1=O [Example 8-116] | > 8.00 | –
O=C(c1cnc2c(c1)OCCN2c1ccc(F)c(F)c1)N1CCCCC1 [Example 1-239] | 7.00 to 8.00 | –
CCN1Cc2cc(N3CCCc4cc(C(=O)N5CCC[C@@H](C)C5)cnc43)ccc2C1=O [Example 8-89] | > 8.00 | –
